Assay results taken from patent US20060281735A1, “Antipsychotic combination therapies and compositions of an alpha-2 adrenergic receptor antagonist and an atypical antipsychotic neuroleptic” (priority 2002, published 2006).
pKi: −log10 of the molar value.

How the values were obtained:
[1] = biological target: α2 receptor; settings: idazoxan; stated with Litman et al. 1996; cited from earlier work
[2] = test system: α2 autoreceptors; settings: presynaptic level; antagonism of clonidine; cited from earlier work
[3] = test system: α2 adrenoreceptors; settings: binding studies; cited from earlier work
[4] = test system: Wistar rats; experiment: Conditioned avoidance response (CAR) behavior in rats; format: in vivo; settings: rat CAR; 2.5 mg/kg with idazoxan versus about 5 mg/kg alone
Excerpt: Adult, male Wistar rats, 200-225 g (B & K Universal, Sollentuna, Sweden) were used. The animals were housed under standard laboratory conditions, on a reversed light/dark cycle (lights off 08:00 am), and allowed 1 week of adaptation to laboratory conditions before being used in experiments. Food and water were available ad libitum.
Rats were trained and tested in a conventional, manually operated two-way active avoidance (shuttlebox) apparatus connected to a high resistance power supply. The box was divided into two compartments of equal size by a partition with one opening. Upon presentation of the 80 dB white noise conditioned stimulus (CS), the animals had 10 seconds to move from one compartment of the shuttlebox into the other. If the rat remained in the same compartment for more than 10 seconds, an intermittent electric shock (approx. 0.2 mA of 0.5-sec duration; intershock interval 2.5 sec), the unconditioned stimulus (UCS), was presented in the grid floor until an escape was performed. […] Intertrial intervals varied at random between 20 and 40 seconds. The following variables were recorded: avoidance (response to CS within 10 sec); escape (response to CS+UCS); escape failures (failure to respond); and intertrial crosses. The animals were trained for 3 consecutive days. Training sessions were run over 15 minutes. […]

[5] = test system: α2-adrenergic receptor versus D2 receptor; settings: literature; cited from earlier work
[6] = biological target: T1, D2 dopamine receptor (Homo sapiens, UniProt P14416); settings: at effective antipsychotic treatment; literature; cited from earlier work
T1 construct: In vivo D2 occupancy can be determined using finctional brain imaging technologies such as Positron Emission Tomography (PET); host or cells: brain of treated patients, in vivo imaging
T1 sequence (P14416 whole entry): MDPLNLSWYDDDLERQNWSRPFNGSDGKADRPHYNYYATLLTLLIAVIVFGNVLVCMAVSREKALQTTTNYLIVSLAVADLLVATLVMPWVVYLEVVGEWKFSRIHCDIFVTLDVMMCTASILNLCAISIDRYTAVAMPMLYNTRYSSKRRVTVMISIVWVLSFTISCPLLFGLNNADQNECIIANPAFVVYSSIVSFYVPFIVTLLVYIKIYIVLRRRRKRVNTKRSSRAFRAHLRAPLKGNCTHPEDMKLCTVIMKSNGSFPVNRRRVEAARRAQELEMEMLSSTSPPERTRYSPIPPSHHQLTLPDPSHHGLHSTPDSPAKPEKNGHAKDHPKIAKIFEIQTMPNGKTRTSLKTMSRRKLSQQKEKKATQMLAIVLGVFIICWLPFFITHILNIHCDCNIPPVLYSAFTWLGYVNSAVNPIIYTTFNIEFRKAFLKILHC

For c1ccc2c(c1)OCC(C1=NCCN1)O2 (racemic) [idazoxan, ±-2-(1,4-benzodioxan-2-yl)-d-imidazoline], the pKi [1] is given as about 7.52.
In the case of c1ccc2c(c1)OCC(C1=NCCN1)O2 (single isomer, unassigned; (+)) [(+)-idazoxan], the “Affinity towards the α2 autoreceptors, times higher than (−) idazoxan” value [2] is given as 40 times and the “Potency in inhibiting p-[3H]aminoclonidine binding, times more potent than the other enantiomer” value [3] is given as 7-8 times.
In the case of Cc1cc2c(s1)Nc1ccccc1N=C2N1CCN(C)CC1 [olanzapine], the “Reduction of olanzapine dose required for effective antipsychotic effect through adjunct idazoxan” value [4] was about 50%.
For OCCOCCN1CCN(C2=Nc3ccccc3Sc3ccccc32)CC1 [quetiapine], the “Fold less affinity for the α2 adrenergic receptor than for the dopamine D2 receptor” value (“Fold less affinity” below) [5] is given as 6-16 fold.
In the case of Cc1nc2n(c(=O)c1CCN1CCC(c3noc4cc(F)ccc34)CC1)CCCC2 [risperidone], the “Fold less affinity” value [5] is given as 2-16 fold and the “In vivo D2 occupancy” value [6] is given as at least 70%.
For O=C1Cc2cc(CCN3CCN(c4nsc5ccccc45)CC3)c(Cl)cc2N1 [ziprasidone], the “Fold less affinity” value [5] is listed as 100 fold.
